In patent US6521620B1, “Bicyclic compounds capable of inhibiting tyrosine kinases of the epidermal growth factor receptor family” (Warner-Lambert Company, priority 1994, dated 2003):
Like-named read-outs stand apart in the source and are kept apart here.

Tests used:
erbB-2, 3, 4 = assay: Inhibition of conditioned media-induced autophosphorylation in SK-BR-3 breast tumor cells; type: cell-based, human
Experimental: (§1) Cells were grown to 100% confluency in 100 mm Petrie dishes (Corning). After the cells were treated for 5 minutes with either EGF (epidermal growth factor), PDGF, or bFGF (basic fibroblast growth factor) (20 ng/ml) or 1 ml of conditioned media from MDA-MB-231 cells, the media was removed and the monolayer scraped into 1 ml of ice cold lysis buffer (50 mM Hepes, pH 7.5, 150 mM NaCl, 10% glycerol, 1% triton X-100, 1 mM EDTA, 1 mM EGTA, 10 mM sodium pyrophosphate, 30 mM p-nitrophenyl phosphate, 1 mM orthovanadate, 50 mM sodium fluoride, 1 mM phenylmethylsulfonylfluoride, 10 μg/ml of aprotinin, and 10 μg/ml of leupeptin). The lysate was transferred to a microfuge tube (small centrifuge that holds 1-2 ml plastic centrifuge tubes), allowed to sit on ice 15 minutes and centrifuged 5 minutes at 10,000×g. The supernatant was transferred to a clean microfuge tube and 5 μg of antibody was added to designated samples. The tubes were rotated for 2 hours at […] after which 25 μl of protein A sepharose was added and then rotation continued for at least 2 more hours. The protein A separose was washed 5 times with 50 mM Hepes, pH 7.5, 150 mM NaCl, 10% glycerol and 0.02% sodium azide. […] The extract were transferred to a microfuge tube and heated to 100° C. for 5 minutes. […] Proteins in the gel were electrophoretically transferred to nitrocellulose and the membrane was washed once in 10 mM Tris buffer, pH 7.2, 150 mM NaCl, 0.01% Azide (TNA) and blocked overnight in TNA containing 5% bovine serum albumin and 1% ovalbumin (blocking buffer). The membrane was blotted for 2 hours with the primary antibody (1 μg/ml in blocking buffer) and then washed 2 times sequentially in TNA, TNA containing 0.05% Tween-20 and 0.05% Nonidet P-40 (commercially available detergent) and TNA.

EGF receptor = molecular target: T1, EGF receptor (Homo sapiens, UniProt P00533); assay: Inhibition of EGF-induced autophosphorylation in A431 epidermoid carcinoma cells; type: cell-based
T1 construct: EGF receptor autophosphorylation in A431 human epidermoid carcinoma; endogenous in cells; host or cells: A431 human epidermoid carcinoma cells (ATCC)
Experimental: as §1

[1] = molecular target: T2, Human EGF receptor tyrosine kinase (Homo sapiens, UniProt P00533); assay: EGF receptor tyrosine kinase inhibition (phosphorylation of PLC-gamma 1 derived peptide); type: biochemical
T2 construct: isolated from A431 human epidermoid carcinoma cells which overexpress EGF receptor; endogenous in cells; host or cells: A431 human epidermoid carcinoma cells; purified from the lysate on wheat germ agglutinin sepharose
Experimental: Purification of Epidermal Growth Factor Receptor Tyrosine Kinase—Human EGF receptor tyrosine kinase was isolated from A431 human epidermoid carcinoma cells which overexpress EGF receptor by the following methods. Cells were grown in roller bottles in 50% Delbuco's Modified Eagle and 50% HAM F-12 nutrient media (Gibco) containing 10% fetal calf serum. Approximately 10^9 cells were lysed in two volumes of buffer containing 20 mM 2-(4N-[2-hydroxyethyl]piperazin-1-yl)ethanesulfonic acid (hepes), pH 7.4, 5 mM ethylene glycol bis(2-aminoethyl ether) N,N,N′,N′-tetraacetic acid, 1% Triton X-100, 10% glycerol, 0.1 mM sodium orthovanadate, 5 mM sodium fluoride, 4 mM pyrophosphate, 4 mM benzamide, 1 mM dithiothreitol, 80 μg/mL aprotinin, 40 μg/mL leupeptin and 1 mM phenylmethylsulfonyl fluoride. After centrifugation at 25,000×g for 10 minutes, the supernatant was equilibrated for 2 h at 4° C. with 10 mL of wheat germ agglutinin sepharose that was previously equilibrated with 50 mM Hepes, […], 0.1% Triton X-100 and 150 mM NaCl, pH 7.5, (equilibration buffer). Contaminating proteins were washed from the resin with 1 M NaCl in equilibration buffer, and the enzyme was eluted with 0.5 M N-acetyl-1-D-glucosamine in equilibration buffer, followed by 1 mM urea. The enzyme was eluted with 0.1 mg/ml EGF.
The reaction was terminated by the addition of 2 mL of […] phosphoric acid and passed through a 2.5 cm phosphocellulose filter disc to bind the peptide. The filter was washed five times with 75 mM phosphoric acid and placed in a vial along with 5 mL of scintillation fluid (Ready gel Beckman).

[2] = tested on: MDA-468 - Human breast carcinoma overexpressing the EGF receptor; assay: cells; settings: read-out: Antiproliferative IC50 (nM)
Experimental: To obtain conditioned medium, MDA-MB-231 cells were grown to confluency in an 850 cm^2 roller bottle and the medium-replaced with 50 ml of serum-free medium. After 3 days the conditioned medium was removed, frozen down in aliquots and used as a heregulin source to stimulate erbB-2, 3, 4.
Cells (2×10^4) were seeded in 24-well plates (1.7×1.6 cm, flat bottom) in two mls of medium with or without various concentrations of drug. Plates were incubated for 3 days at 37° in a humidified atmosphere containing 5% CO2 in air. Cell growth was determined by cell count with a Coulter Model AM electronic cell counter (Coulter Electronics, Inc., Hialeah, Fla.).

[3] = tested on: B104-1-1 - NIH-3T3 fibroblasts transfected by the neu oncogene; assay: Growth inhibition assay (antiproliferative), B104-1-1; type: cell-based; settings: Mus musculus; B104-1-1 cells
[4] = tested on: SK-BR-3 - Human breast carcinoma overexpressing erbB-2 and erbB-3; assay: Growth inhibition assay (antiproliferative), SK-BR-3; type: cell-based; settings: SK-BR-3 cells
[5] = SK-BR-3 cells, read-out: SKBR-3 IC50
[6] = Table 1, values in nM, read-out: EGF Receptor Tyrosine Kinase Inhibition IC50
[7] = enzyme value repeated in the autophosphorylation table, read-out: EGFR IC50
[8] = Table 1, values printed in μM, read-out: EGF Receptor Tyrosine Kinase Inhibition IC50
[9] = Table 1, values in pM, read-out: EGF Receptor Tyrosine Kinase Inhibition IC50

T2 sequence (P00533 25-1210): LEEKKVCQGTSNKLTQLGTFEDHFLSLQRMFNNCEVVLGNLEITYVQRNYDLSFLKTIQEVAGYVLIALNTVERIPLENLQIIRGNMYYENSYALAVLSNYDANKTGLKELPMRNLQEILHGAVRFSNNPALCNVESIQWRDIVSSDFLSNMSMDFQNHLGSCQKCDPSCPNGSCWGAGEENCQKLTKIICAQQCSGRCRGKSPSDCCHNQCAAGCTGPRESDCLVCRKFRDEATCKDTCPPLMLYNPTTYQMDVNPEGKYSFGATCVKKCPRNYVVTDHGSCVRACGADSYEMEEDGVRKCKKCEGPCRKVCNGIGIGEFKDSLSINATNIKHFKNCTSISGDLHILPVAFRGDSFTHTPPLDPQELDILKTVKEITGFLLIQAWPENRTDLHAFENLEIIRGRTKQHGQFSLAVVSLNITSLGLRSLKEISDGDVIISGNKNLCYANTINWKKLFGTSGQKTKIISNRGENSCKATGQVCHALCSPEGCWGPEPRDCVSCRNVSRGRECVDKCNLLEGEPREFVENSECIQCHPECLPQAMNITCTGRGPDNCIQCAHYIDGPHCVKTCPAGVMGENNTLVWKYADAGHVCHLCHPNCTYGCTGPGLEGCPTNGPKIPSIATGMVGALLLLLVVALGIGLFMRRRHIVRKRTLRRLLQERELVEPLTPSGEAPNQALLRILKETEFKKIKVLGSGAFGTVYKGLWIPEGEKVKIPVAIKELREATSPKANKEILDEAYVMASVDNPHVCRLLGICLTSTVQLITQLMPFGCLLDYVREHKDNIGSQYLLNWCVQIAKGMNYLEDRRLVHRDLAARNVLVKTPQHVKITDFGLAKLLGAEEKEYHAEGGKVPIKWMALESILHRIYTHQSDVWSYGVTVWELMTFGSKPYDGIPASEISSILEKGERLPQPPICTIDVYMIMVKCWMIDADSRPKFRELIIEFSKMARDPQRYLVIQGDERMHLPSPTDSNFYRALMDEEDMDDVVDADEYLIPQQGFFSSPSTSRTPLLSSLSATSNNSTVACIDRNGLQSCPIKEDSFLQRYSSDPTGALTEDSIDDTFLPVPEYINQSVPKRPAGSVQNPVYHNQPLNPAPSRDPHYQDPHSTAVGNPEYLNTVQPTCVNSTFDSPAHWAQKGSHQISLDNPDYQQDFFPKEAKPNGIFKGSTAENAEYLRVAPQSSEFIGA
T1 sequence (P00533 25-1210): as above

Structure (SMILES)	IC50 (erbB-2, 3, 4; [5]) [nM]	IC50 (EGF receptor) [nM]	IC50 [1, 6] [nM]	IC50 [1, 7] [nM]	also measured
COc1cc2c(Nc3cccc(Br)c3)ncnc2cn1 [Example 59, 4-(3-Bromoanilino)-6-methoxypyrido[3,4-d]pyrimidine]	< 10	12	2.6	2.6	
Nc1cc2ncnc(Nc3ccccc3C(F)(F)F)c2cn1 [Example 30, 7-Amino-4-(2-trifluoromethylanilino)pyrido[4,3-d]pyrimidine]					melting point: 126 to 130 °C (dec.); IC50 [1, 8]: 10000 nM
NNc1ncc2c(NCc3ccccc3)ncnc2n1 [Example 70, 4-Benzylamino-7-hydrazinopyrimido[4,5-d]pyrimidine]	< 10		473	11	
CNc1cc2c(Nc3cccc(Br)c3)ncnc2cn1 [Example 60, 4-(3-Bromoanilino)-6-methylaminopyrido[3,4-d]pyrimidine]	< 10	13		0.008	IC50 [2]: 3000 nM; IC50 [3]: 2100 nM; IC50 [1, 9]: 0.008 nM; IC50 [4]: 600 nM
c1ccc(CNc2nc[nH]c3nccc2-3)cc1 [Example 74, 4-Benzylaminopyrrolo[2,3-d]pyrimidine]	> 1000			55	IC50 [1, 8]: 11500 nM
Fc1ccc2ncnc(Nc3cccc(Br)c3)c2n1 [Example 4, 4-(3-Bromoanilino)-6-fluoropyrido[3,2-d]pyrimidine]	> 10000	> 1000	225	225	
C[C@@H](Nc1ncnc2cc(N)ncc12)c1ccccc1 [Example 41, 7-Amino-4-([R]-1-phenylethylamino)pyrido[4,3-d]pyrimidine]			220		melting point: 231.8 to 232.1 °C
CN(C)c1cc2c(Nc3cccc(Br)c3)ncnc2cn1 [Example 61, 4-(3-Bromoanilino)-6-dimethylaminopyrido[3,4-d]pyrimidine]		21		0.006	IC50 (erbB-2, 3, 4; read-out: SKBR-3 IC50 nM, SK-BR-3 cells): 39 nM; IC50 [2]: 12000 nM; IC50 [3]: 1000 nM; IC50 [1, 9]: 0.006 nM; IC50 [4]: 900 nM
Brc1cccc(Nc2ncnc3cccnc23)c1 [Example 3, 4-(3-Bromoanilino)pyrido[3,2-d]pyrimidine]					IC50 [1, 8]: 1100 nM
Nc1cc2ncnc(Nc3ccccc3[N+](=O)[O-])c2cn1 [Example 21, 7-Amino-4-(2-nitroanilino)pyrido[4,3-d]pyrimidine]					IC50 [1, 8]: 1250 nM
Nc1cccc(Nc2ncnc3cc(N)ncc23)c1 [Example 17, 7-Amino-4-(3-aminoanilino)pyrido[4 3-d]pyrimidine]					IC50 [1, 8]: 1550 nM
Nc1cc2ncnc(NCc3ccc(C(F)(F)F)cc3)c2cn1 [Example 52, 7-Amino-4-(4-trifluoromethylbenzylamino)pyrido[4,3-d]pyrimidine]					IC50 [1, 8]: 8000 nM
c1ccc(CNc2ncnc3ccsc23)cc1 [Example 72, 4-Benzylaminothieno[3,2-d]pyrimidine]			35		

Second part, led by results:

IC50 (erbB-2, 3, 4; [5]) [nM]	IC50 (EGF receptor) [nM]	IC50 [1, 6] [nM]	IC50 [1, 7] [nM]	Structure (SMILES)	also measured
~1500	252	39	39	Nc1cc2ncnc(Nc3cccc([N+](=O)[O-])c3)c2cn1 [Example 22, 7-Amino-4-(3-nitroanilino)pyrido[4,3-d]pyrimidine]	
2660	53	7.6	7.6	Nc1ccc2ncnc(Nc3cccc(Br)c3)c2n1 [Example 6, 4-(3-Bromoanilino)-6-aminopyrido[3,2-d]pyrimidine]	
		590		C[C@@H](Nc1ncnc2ccncc12)c1ccccc1 [Example 39, 4-([R]-1-Phenylethylamino)pyrido[4,3-d]pyrimidine]	melting point: 138 to 138.5 °C
100	20	3.1	3.1	CNc1ccc2ncnc(Nc3cccc(Br)c3)c2n1 [Example 7, 4-(3-Bromoanilino)-6-methylaminopyrido[3,2-d]pyrimidine]	
71	32	9.6	9.6	CN(C)c1ccc2ncnc(Nc3cccc(Br)c3)c2n1 [Example 8, 4-(3-Bromoanilino)-6-dimethylaminopyrido[3,2-d]pyrimidine]	
		71		c1ccc(CNc2ncnc3ccncc23)cc1 [Example 38, 4-Benzylaminopyrido[4,3-d]pyrimidine]	
		70		Nc1cc2ncnc(Nc3cccc(O)c3)c2cn1 [Example 14, 7-Amino-4-(3-hydroxyanilino)pyrido[4,3-d]pyrimidine]	
		262		Nc1cc2ncnc(Nc3cccc(I)c3)c2cn1 [Example 29, 7-Amino-4-(3-iodoanilino)pyrido[4,3-d]pyrimidine]	
